Activity calls are given as the source filed them.
What was measured:
[1] = HepG2 cell cytotoxicity, dose response, cytotoxicity control for Shn3 inhibitor project, CellTiter-Glo, cherry-picked (AID 624134); type: functional, cell-based
[2] = biological target: T1, Corticotropin-releasing factor receptor 2/Corticotropin-releasing factor-binding protein (Homo sapiens, UniProt P24387+Q13324); experiment: activators of CRF receptor 2 with binding protein – uHTS hits, confirmation (AID 602473); type: functional; conditions: read-out: EC50_Mean
T1 sequence (Q13324 whole entry): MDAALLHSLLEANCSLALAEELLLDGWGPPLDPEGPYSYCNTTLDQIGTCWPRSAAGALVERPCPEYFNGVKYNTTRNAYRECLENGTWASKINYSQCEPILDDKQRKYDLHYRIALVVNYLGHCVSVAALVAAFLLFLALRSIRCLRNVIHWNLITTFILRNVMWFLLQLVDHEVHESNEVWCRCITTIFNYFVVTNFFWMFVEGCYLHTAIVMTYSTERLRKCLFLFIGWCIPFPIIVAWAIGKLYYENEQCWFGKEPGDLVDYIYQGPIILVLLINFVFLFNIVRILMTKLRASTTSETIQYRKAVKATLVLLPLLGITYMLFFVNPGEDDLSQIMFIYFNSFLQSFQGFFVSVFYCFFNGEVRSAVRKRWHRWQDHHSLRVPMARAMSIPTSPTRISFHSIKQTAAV
T1 sequence (P24387 whole entry): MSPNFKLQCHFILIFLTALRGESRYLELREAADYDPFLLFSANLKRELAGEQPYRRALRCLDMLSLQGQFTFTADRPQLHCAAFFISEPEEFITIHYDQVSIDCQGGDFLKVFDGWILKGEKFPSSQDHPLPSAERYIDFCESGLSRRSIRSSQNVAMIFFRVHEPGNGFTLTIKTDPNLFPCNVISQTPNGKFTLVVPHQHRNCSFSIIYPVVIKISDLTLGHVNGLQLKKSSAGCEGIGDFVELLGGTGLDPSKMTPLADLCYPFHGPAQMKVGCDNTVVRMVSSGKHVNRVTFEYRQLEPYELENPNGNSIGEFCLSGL

[3] = cytotoxicity in HEK-293T cells, dose response, cytotoxicity control for TCR NF-kB inhibitor project, luminescence, T-cell screen hits (AID 489026); type: functional, cell-based;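 note: cells exposed to compound about 14 hours before the viability readout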
[4] = biological target: T2, Short transient receptor potential channel 4 (Mus musculus, UniProt Q9QUQ5); experiment: mouse TRPC4 channel activators, dose response, cell-based, HEK293 TRPC4/mu-opioid, Fluo-4 calcium (AID 434937); type: functional
T2 sequence (Q9QUQ5 whole entry): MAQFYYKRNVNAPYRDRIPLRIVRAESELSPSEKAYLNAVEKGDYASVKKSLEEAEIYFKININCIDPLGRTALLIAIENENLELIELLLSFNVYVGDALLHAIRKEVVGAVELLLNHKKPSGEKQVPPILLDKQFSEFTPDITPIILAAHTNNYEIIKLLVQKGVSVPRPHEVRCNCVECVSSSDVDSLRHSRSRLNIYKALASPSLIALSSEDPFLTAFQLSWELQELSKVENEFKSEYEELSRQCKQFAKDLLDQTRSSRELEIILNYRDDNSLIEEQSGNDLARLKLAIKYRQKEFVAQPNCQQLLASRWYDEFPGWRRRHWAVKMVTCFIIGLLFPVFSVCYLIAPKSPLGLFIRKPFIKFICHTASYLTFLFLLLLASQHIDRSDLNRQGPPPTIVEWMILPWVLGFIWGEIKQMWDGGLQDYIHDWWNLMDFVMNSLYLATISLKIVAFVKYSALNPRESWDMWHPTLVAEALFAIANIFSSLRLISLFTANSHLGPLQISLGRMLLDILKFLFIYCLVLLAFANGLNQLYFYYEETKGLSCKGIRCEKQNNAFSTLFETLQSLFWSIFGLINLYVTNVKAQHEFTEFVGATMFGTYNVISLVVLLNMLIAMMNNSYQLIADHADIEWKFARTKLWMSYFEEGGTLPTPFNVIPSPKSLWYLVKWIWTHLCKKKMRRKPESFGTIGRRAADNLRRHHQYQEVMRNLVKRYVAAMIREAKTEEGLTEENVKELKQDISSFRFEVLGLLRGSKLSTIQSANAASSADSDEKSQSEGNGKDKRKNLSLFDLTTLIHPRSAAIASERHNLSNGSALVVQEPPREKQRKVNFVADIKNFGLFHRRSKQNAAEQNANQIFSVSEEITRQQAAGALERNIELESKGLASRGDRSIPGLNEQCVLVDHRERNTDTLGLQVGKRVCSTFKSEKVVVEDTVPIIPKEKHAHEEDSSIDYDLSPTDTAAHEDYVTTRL

[5] = biological target: T2, Short transient receptor potential channel 4; experiment: mouse TRPC4 channel inhibitors, dose response, cell-based, HEK293 TRPC4/mu-opioid, Fluo-4 calcium (AID 434942); type: functional;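 note: potency of inhibitors blocking the TRPC4 calcium response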
[6] = biological target: T3, Carboxy-terminal domain RNA polymerase II polypeptide A small phosphatase 1 (Homo sapiens, UniProt Q9GZU7); experiment: inhibitors of CTDSP1, concentration-response testing, biochemical assay, absorbance-based, actives from ultra-high-throughput screening (AID 540297); type: functional
T3 sequence (Q9GZU7 whole entry): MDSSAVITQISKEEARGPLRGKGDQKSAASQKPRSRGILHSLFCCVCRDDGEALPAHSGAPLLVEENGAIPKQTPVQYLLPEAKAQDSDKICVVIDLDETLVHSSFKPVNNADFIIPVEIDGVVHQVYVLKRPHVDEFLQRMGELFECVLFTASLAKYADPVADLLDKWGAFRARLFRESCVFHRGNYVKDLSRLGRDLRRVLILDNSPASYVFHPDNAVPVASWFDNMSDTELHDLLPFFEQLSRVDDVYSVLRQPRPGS

[7] = biological target: Eukaryotic translation initiation factor 4E (Mus musculus, UniProt P63073); experiment: eIF4E–eIF4G protein interaction inhibitors, dose response, biochemical, TR-FRET (AID 855); type: functional;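 note: potency for disrupting eIF4E binding to eIF4GI seen as loss of FRET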
Sequence of Eukaryotic translation initiation factor 4E (P63073 whole entry): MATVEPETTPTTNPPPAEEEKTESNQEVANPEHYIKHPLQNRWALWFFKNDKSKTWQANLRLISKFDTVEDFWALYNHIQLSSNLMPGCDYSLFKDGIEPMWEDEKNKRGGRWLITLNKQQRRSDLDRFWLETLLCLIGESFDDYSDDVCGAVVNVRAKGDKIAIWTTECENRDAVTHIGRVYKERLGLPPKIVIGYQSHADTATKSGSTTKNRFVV

Cytochrome P450 3A4 = Cytochrome P450 3A4 (Homo sapiens, UniProt P08684);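 note: CYP3A4 tested as one member of a cytochrome P450 panel screen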
Sequence of Cytochrome P450 3A4 (P08684 whole entry): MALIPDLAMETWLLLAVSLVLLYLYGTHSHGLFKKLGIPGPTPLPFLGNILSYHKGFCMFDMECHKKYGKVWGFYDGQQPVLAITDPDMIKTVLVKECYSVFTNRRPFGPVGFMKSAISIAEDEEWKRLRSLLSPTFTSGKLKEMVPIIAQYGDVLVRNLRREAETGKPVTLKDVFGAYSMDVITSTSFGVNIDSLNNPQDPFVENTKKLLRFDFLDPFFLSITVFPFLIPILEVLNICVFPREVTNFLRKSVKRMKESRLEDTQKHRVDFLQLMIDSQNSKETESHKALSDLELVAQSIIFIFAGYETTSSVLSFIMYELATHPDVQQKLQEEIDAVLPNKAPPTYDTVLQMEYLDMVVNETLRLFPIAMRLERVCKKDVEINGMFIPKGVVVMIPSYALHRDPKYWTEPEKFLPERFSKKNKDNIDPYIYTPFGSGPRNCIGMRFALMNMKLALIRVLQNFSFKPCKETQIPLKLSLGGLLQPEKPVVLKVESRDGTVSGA

[8] = cytotoxicity in HEK-293T cells, dose response, cytotoxicity control for BCR NF-kB inhibitor project, luminescence, B-cell screen hits (AID 489021); type: functional, cell-based;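 note: HEK-293T cells carrying an NF-kB luciferase reporter; cells exposed to compound for about 14 hours before viability readout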
Nonstructural protein 1 = Nonstructural protein 1 (Influenza A virus, UniProt Q194T2); type: functional, Influenza A virus (A/California/07/2009(H1N1))
Sequence of Nonstructural protein 1 (Q194T2 whole entry): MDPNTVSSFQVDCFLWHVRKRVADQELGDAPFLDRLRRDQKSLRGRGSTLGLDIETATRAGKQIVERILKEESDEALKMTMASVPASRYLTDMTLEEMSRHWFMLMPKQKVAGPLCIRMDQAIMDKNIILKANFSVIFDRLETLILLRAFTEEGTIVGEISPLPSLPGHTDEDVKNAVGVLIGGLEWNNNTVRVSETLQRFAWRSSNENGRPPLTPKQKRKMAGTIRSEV

Prothrombin = Prothrombin (Homo sapiens, UniProt P00734); experiment: Thrombin 1536 HTS Dose Response Confirmation. [Related pubchem assays: 1046 (Thrombin 1536 HTS; hits were confirmed in this assay)]; type: functional
[9] = cytotoxicity in OVCAR8 ovarian cancer cells, dose response, PAX8 project, cell-based, plate reader, dry powder samples (AID 743197); type: functional; conditions: OVCAR-8
Paired box protein Pax-8 = Paired box protein Pax-8 (Homo sapiens, UniProt Q06710); experiment: inhibitors of PAX8-driven TPO luciferase reporter, dose response, RMG-I cells, cherry-pick (AID 687027); type: functional, cell-based;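 note: luciferase reporter driven by Pax8 target thyroperoxidase promoter measured by SteadyGlo luminescence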
Sequence of Paired box protein Pax-8 (Q06710 whole entry): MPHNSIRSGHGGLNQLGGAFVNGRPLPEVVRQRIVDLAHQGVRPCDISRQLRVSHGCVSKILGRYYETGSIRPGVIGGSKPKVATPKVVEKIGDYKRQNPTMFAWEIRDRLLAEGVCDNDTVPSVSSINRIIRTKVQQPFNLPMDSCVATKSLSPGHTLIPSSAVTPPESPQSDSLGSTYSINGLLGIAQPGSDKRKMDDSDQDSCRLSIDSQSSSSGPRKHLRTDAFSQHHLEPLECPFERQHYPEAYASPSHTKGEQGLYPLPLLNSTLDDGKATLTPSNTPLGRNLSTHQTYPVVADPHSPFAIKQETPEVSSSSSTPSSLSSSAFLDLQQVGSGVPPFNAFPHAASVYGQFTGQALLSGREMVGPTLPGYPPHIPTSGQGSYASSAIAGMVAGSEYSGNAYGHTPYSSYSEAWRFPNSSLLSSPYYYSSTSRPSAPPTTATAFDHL

[10] = biological target: T4, DNA repair protein RAD52 homolog (Homo sapiens, UniProt P43351); type: functional, biochemical
T4 sequence (P43351 whole entry): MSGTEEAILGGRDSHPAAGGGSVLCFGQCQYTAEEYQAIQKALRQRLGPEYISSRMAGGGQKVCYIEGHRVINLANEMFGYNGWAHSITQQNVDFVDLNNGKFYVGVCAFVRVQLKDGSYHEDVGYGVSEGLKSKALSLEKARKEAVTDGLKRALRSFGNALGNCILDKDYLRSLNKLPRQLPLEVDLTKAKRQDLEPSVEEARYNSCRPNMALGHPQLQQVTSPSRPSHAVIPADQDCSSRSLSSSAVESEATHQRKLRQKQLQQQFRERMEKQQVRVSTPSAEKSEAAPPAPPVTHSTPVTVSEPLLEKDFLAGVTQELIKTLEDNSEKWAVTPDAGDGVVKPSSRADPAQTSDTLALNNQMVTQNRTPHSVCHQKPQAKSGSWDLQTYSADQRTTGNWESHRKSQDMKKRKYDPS

[11] = inhibitors of firefly luciferase expression or activity, dose response, H4 neuroglioma cells, luminescence (AID 1990); type: functional, cell-based
[12] = Luminescence Cell-Based Dose Response HTS to Identify Inhibitors of 5'UTR Stem-Loop Driven Prion Protein mRNA Translation in H4 Neuroglioblastoma Cells. [Related pubchem assays: 1827 (Project Summary), 1813 (Primary HTS)]; type: functional
[13] = inhibitors of SNCA 5'UTR-driven reporter translation, confirmation, H4 neuroglioma cells, luminescence (AID 1988); type: functional, cell-based
[14] = biological target: T5, Long-chain-fatty-acid--AMP ligase FadD28 (Mycobacterium tuberculosis, UniProt P9WQ59); experiment: Fluorescence polarization aasay to screen for inhibitors that compete for the binding of FadD28 to a bisubstrate Measured in Biochemical System Using Plate Reader - 2147-01_Inhibitor_Dose_CherryPick_Activity.; type: functional, Mycobacterium tuberculosis H37Rv
T5 sequence (P9WQ59 whole entry): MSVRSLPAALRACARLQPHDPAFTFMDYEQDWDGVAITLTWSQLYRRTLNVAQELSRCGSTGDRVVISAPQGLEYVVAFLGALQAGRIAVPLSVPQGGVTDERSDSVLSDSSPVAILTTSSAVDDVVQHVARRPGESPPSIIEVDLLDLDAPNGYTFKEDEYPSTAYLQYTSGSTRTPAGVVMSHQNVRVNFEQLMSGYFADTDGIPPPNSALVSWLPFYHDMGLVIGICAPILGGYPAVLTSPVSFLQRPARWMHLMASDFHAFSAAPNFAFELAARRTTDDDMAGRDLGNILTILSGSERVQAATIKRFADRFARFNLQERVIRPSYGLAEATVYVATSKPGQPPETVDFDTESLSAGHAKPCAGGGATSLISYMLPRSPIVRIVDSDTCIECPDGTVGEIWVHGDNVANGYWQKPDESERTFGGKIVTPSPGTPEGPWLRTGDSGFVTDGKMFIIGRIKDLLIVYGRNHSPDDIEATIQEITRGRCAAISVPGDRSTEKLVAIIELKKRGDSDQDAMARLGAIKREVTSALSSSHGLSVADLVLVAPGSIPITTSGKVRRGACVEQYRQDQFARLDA

[15] = biological target: Heat shock protein HSP 90-alpha (Homo sapiens, UniProt P07900); type: functional, organism-based
INS1 = experiment: beta cell apoptosis inhibitors, cytokine rescue, dose response, luminescence, retest (AID 449756); type: functional, cell-based; conditions: Rattus norvegicus;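 note: cell death triggered by IL-1 beta plus TNF-alpha plus IFN-gamma mixture; protective hits raise ATP signal compared with cytokine alone wells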
[16] = biological target: Glyceraldehyde-3-phosphate dehydrogenase (Homo sapiens, UniProt P04406)
Sequence of Glyceraldehyde-3-phosphate dehydrogenase (P04406 whole entry): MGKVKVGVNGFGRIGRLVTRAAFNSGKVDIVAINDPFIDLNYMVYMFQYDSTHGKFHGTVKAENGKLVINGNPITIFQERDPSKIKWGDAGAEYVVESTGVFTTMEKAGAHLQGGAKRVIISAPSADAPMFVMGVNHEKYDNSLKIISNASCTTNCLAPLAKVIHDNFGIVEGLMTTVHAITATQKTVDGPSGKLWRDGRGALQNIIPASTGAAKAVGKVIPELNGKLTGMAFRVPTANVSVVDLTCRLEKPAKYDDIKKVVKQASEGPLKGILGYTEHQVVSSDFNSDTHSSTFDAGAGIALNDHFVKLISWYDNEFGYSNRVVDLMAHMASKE

[17] = biological target: T6, Ubiquitin-conjugating enzyme E2 N (Homo sapiens, UniProt P61088); type: functional;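 note: Dose-response confirmation in a TR-FRET assay detecting UBC13-driven polyubiquitin chain formation, inhibition measured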
T6 sequence (P61088 whole entry): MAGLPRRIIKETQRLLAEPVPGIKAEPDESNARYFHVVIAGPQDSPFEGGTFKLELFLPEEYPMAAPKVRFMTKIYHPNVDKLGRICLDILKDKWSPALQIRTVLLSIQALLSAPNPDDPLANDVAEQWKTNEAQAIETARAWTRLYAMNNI

## CCOc1ccc(Br)cc1C1=CC(=O)C[C@H](c2ccc(OC)cc2)C1
[1]
  AC50: > 70 µM (inactive)
[2]
  EC50: > 53 µM (inactive)
[3]
  IC50: > 80 µM (inactive)

## CCn1cc(CN2CCC(n3nccc3NC(=O)CCCc3ccccc3)CC2)cn1
[4]
  EC50: 1.33 µM (active)
[5]
  EC50: 1.19 µM (active)

## Cc1c(OC(=O)c2ccc([N+](=O)[O-])cc2)c2c(c[n+]1C)COC(C)(C)OC2
[6]
  IC50: 4.14 µM (active)
[7]
  IC50: > 64 µM (inactive)
Cytochrome P450 3A4
  AC50: 7.08 µM (inconclusive)

## C=CCOC(=O)COc1cc(C)cc2oc(=O)c3c(c12)CCC3
[8]
  IC50: > 80 µM (inactive)

## Cc1cc(N(C)C)ccc1N=Nc1ccc2ncccc2c1
Nonstructural protein 1
  IC50: 9.43 µM (active)

## S=C(NCc1cccs1)NCC1CCCO1 (stereo not drawn)
Prothrombin
  IC50: > 50 µM (not active)

## CC(C)CN(CC(C)C)c1nc(N)c(C#N)c(CC#N)c1C#N
[5]
  EC50: 5.96 µM (active)

## COc1ccc(NC(=O)Nc2ccc3c(c2)C(=O)N([C@@H](C)CO)C[C@@H](C)[C@@H](CN(C)Cc2ccc(Cl)c(Cl)c2)OCCCC[C@@H](C)O3)cc1
[9]
  AC50: 65.4 µM (active)
Paired box protein Pax-8
  AC50: 14.1 µM (active)

## COc1ccc(CNc2nc(-c3cccnc3)nn2C(=O)c2ccco2)cc1
Prothrombin
  IC50: 1.19 µM (active)

## CCOC(=O)CN1C(=O)S/C(=C\c2ccc(-c3ccc(C(=O)O)c(Cl)c3)o2)C1=O
[6]
  IC50: 4.84 µM (active)

## CC(C)C[C@@H]1CN=C(N)N1C[C@@H]1CCCN1C[C@@H](C(C)C)N1C[C@@H](Cc2ccccc2)N(CCc2ccc(Cl)c(Cl)c2)C1=N
[10]
  AC50: 16.7 µM (active)

## COc1ccc(/C=N/NC(=O)COc2ccccc2-c2ccccc2)cc1
[11]
  EC50: 8.05 µM (active)
[12]
  EC50: 0.483 µM (active)
[3]
  IC50: > 80 µM (inactive)
[13]
  EC50: 0.166 µM (active)

## COc1ccc(Nc2nc(N)c3ccccc3n2)c(OC)c1
[5]
  EC50: 4.22 µM (active)

## Cc1cccc(NC(=O)CN2C(=O)S/C(=C\c3cccn3-c3cccc(C(=O)O)c3)C2=O)c1
[6]
  IC50: 6.83 µM (active)
[14]
  AC50: 0.519 µM (active)

## Cc1c(C)c2cccnc2c2ncccc12
[15]
  AC50: 3.99 µM (active)
INS1
  AC50: 1.57 µM (active)
[3]
  IC50: > 80 µM (inactive)

## COc1ccc(Nc2c3c(nc4ccccc24)CCC3)cc1
[5]
  EC50: 4.22 µM (active)

## CSCC[C@H](NS(=O)(=O)c1ccc(C(C)=O)cc1)c1nnc2ccccn12
[6]
  IC50: 5.88 µM (active)

## CN1CCN(c2cc(N3CCN(C(=O)c4ccco4)CC3)c3c4c(onc24)-c2ccccc2C3=O)CC1
Nonstructural protein 1
  IC50: 15.3 µM (active)

## CCOc1ccc(C(=O)NCC(=O)OC(C)C(=O)NCc2ccco2)cc1OCC (stereo not drawn)
Prothrombin
  IC50: > 50 µM (not active)

## O=C1C2C3C=CC(C3)C2C(=O)N1c1n[nH]c(CCc2ccccc2)n1 (stereo not drawn)
[16]
  IC50: > 100 µM (not active)

## NNC(=O)COc1ccc(-c2nccc(-c3ccc(F)cc3)n2)cc1
[8]
  IC50: > 80 µM (inactive)

## CCCC(=O)Nc1nc2ccc(S(=O)(=O)N3CCCCC3)cc2s1
[3]
  IC50: > 80 µM (inactive)

## CCCc1noc2c1/C(=N\O)CC(CC(C)SCC)C2 (stereo not drawn)
[5]
  EC50: 1.5 µM (active)

## OCCN1CCN(CC/C=C2/c3ccccc3Sc3ccc(C(F)(F)F)cc32)CC1
[17]
  IC50: > 20 µM (inactive)
[10]
  AC50: 21.2 µM (active)

## O=C1C(Cl)=C(N2CCOCC2)C(=O)N1c1ccnc(Cl)c1
[16]
  IC50: > 50 µM (inconclusive)
